Laboratory results taken from US11684621B2, “Combination containing sGC stimulators and mineralocorticoid receptor antagonists” (Bayer Pharma Aktiengesellschaft, priority 2016, dated 2023).

System: L-NAME-treated renin transgenic rats (TGR(mRen2)27)
Experiment: L-NAME-treated transgenic renin rat (TGR(mRen2)27): mortality and proteinuria
Assay type: in vivo
Conditions: finerenone 10 mg/kg od, compound of the formula (X) 0.3 mg/kg od, alone or combined; for All-cause mortality during the study period / Survival rate over the study period: L-NAME-treated TGR(mRen2)27 renin rats, daily gavage; for All-cause mortality during the study period: 15 animals per group, placebo mortality 40%; for Survival rate over the study period: study terminated after 40% of placebo animals had died; for Reduction of proteinuria, measured as protein/creatinine quotient in urine / Protein/creatine quotient - % of group A (proteinuria in % reduction from placebo): L-NAME-treated renin transgenic rats; for Reduction of proteinuria, measured as protein/creatinine quotient in urine: versus placebo; for Protein/creatine quotient - % of group A (proteinuria in % reduction from placebo): urine, end of the study, mean ± SEM, relative to placebo group A
Description: 3.) L-NAME-treated transgenic renin rat (TGR(mRen2)27)
The transgenic renin rat ‘TGR(mRen2)27’ is a hypertensive rat line developed by Mullins and Ganten which overexpresses the Ren-2 gene of the mouse. Additional administration of the nitrogen monoxide synthase inhibitor L-NAME induces endothelial dysfunction which increases morbidity and mortality in this model. Unless subjected to life-long antihypertensive therapy, homozygous animals die of secondary complications such as heart and kidney failure or stroke.
Male TGR(mRen2)27 renin rats aged 10 to 20 weeks are randomized to different pharmacological treatment groups and a placebo group. In addition, the nitrogen monoxide synthase inhibitor L-NAME is administered via the drinking water in a concentration of 30 to 100 mg/l. During the entire experiment, drinking water and feed are available ad libitum to the animals. The substances are administered via the feed or daily by gavage for 4-10 weeks. Animals treated in the same way but receiving either only the solvent or the feed without test substance serve as placebo group. During the experiment, the systolic blood pressure is determined at regular intervals using a tail cuff, and proteinuria and urine electrolyte composition are determined by collecting the urine in metabolic cages. At the end of the experiment, haemodynamic parameters (blood pressure, heart rate, inotropism [dp/dt], relaxation time [tau], maximum left ventricular pressure, left ventricular end-diastolic pressure [LVEDP]) are measured, and the weights of heart, kidney and lung are determined, protein elimination and biomarkers (e.g. ANP, RIA Kit RK 005-24, Phoenix Pharmaceuticals, Inc., USA, cGMP, RIA Kit RE29075, IBL International GmbH, Hamburg, Germany, renin, angiotensin I, RIA Kit CA-1533, DiaSorin S.p.A., Italy, and aldosterone, P2714, DiaSorin S.p.A., Italy) and gene expression of biomarkers by RT/TaqMan PCR following RNA isolation from cardiac and renal tissue are determined.
Cardiac and cardiovascular disorders as well as renal and cardiorenal disorders are characterized by high patient morbidity and also high mortality. This morbidity and mortality, together with various risk factors such as hypertension, can be reproduced very accurately in the above-described animal model of the L-NAME-treated renin transgenic rat. Therefore, this animal model, for example, was used to investigate MR antagonists such as, for example, finerenone according to the compound of the formula (IV) and sGC stimulators such as, for example, the compound of the formula (X), and combinations of both: […]
For example, the MR antagonist finerenone, corresponding to the compound of the formula (IV), and the sGC stimulator, corresponding to the compound of the formula (X), were tested on their own and in combinations in TGR(mRen2)27 renin rats aged 10 to 20 weeks. In addition, the nitrogen monoxide synthase inhibitor L-NAME was administered via the drinking water in a concentration of 30 to 100 mg/l. During the entire experiment, drinking water and feed were available ad libitum to the animals. The substances were administered daily by gavage for 4-10 weeks. Animals treated in the same way but receiving only the solvent for the test substance served as placebo group. In the test series, in addition to placebo (group A), the MR antagonist finerenone corresponding to the compound of the formula (IV) (10 mg/kg od) (group B) and the sGC stimulator corresponding to the compound of the formula (X) (0.3 mg/kg od) (group C) on their own and a combination of finerenone corresponding to the compound of the formula (IV) (10 mg/kg od)+compound of the formula (X) (0.3 mg/kg od) (group D) were administered. In this study, 15 animals were used per group (A, B, C, D) (Table 1): […]

COC(=O)Nc1c(N)nc(-c2nn(Cc3ccccc3F)c3ncc(F)cc23)nc1N [compound of the formula (X), methyl {4,6-diamino-2-[5-fluoro-1-(2-fluorobenzyl)-1H-pyrazolo[3,4-b]pyridin-3-yl]pyrimidin-5-yl}carbamate]
All-cause mortality during the study period: 13% | Survival rate over the study period: 87% | Reduction of proteinuria, measured as protein/creatinine quotient in urine: 51% | Protein/creatine quotient - % of group A (proteinuria in % reduction from placebo): −51 + 20%

CCOc1ncc(C)c2c1[C@H](c1ccc(C#N)cc1OC)C(C(N)=O)=C(C)N2 [finerenone, (S)-4-(4-cyano-2-methoxyphenyl)-5-ethoxy-2,8-dimethyl-1,4-dihydro-1,6-naphthyridine-3-carboxamide]
All-cause mortality during the study period: 20% | Survival rate over the study period: 80% | Reduction of proteinuria, measured as protein/creatinine quotient in urine: 58% | Protein/creatine quotient - % of group A (proteinuria in % reduction from placebo): −58 + 16%
